{
  "source": "patent US10960020B2",
  "about": "“Modulation of PCSK9 and LDLR through DRP1 inhibition” (THE BRIGHAM AND WOMEN'S HOSPITAL, INC., priority 2016, dated 2021)",
  "key": {"PCSK9 secretion": {"tested_on": "PCSK9 secretion", "test": "SILAC mass spectrometry of HepG2 secreted proteins: PCSK9", "type": "cell-based, human", "details": "HepG2, Mdivi-1 50 μM, 24 hours, vs vehicle", "method": "To assess DRP1 involvement in protein secretion, secretome changes were quantified using stable isotope labeling by amino acids in cell culture (SILAC).\nHepG2 cells were cultured on 100 mm dishes at a confluency of ˜60-70%. […] Media was prepared with DMEM (no lysine, no arginine; A14431-01, Thermo Fisher Scientific) to which L-glutamine (2 mM, Lonza, Walkersville, Md.), L-arginine HCl (0.17 mM; Sigma), either light L-lysine HCl (0.339 mM; Sigma) or heavy L-lysine 2HCl (0.339 mM; Cambridge Isotopes, Tewksbury, Mass.), 10% dialyzed FBS (Thermo Fisher Scientific), 1% pen/strep was added. Media was changed every two days, and cells were split as required. […]\nThe peptide sample was diluted [1/10-fold] and analyzed with the high resolution/accuracy Q Exactive™ mass spectrometer fronted with a Nanospray™ FLEX ion source, and coupled to an Easy-nLC1000 HPLC pump (Thermo Fisher Scientific). […] The peptide false discovery rate (FDR) was calculated using Percolator™ provided by Proteome Discoverer. […] Quantification of SILAC peak pairs was also done in Proteome Discoverer™ using up to the top three most abundant peptides. […] Significant changes were determined as proteins with an average value (ratio of Mdivi-1 treated/vehicle treated peak intensity) plus two standard deviations being less than the control value (vehicle treated/vehicle treated peak intensity=1). […]"}, "[1]": {"tested_on": "PCSK9 secretion in HepG2 cells", "test": "Secreted PCSK9 ELISA, HepG2 media", "type": "cell-based, human", "details": "HepG2, 24 hours; Mdivi-1 50 μM, pitavastatin 1 μM, T0901317 1 μM", "description": "Pitavastatin and T0901317 were synthesized and provided by Kowa Company, Ltd. (Tokyo, Japan), and treated at a dose of 1 μM in all experiments. […] Mdivi-1 in DMSO vehicle was added at a concentration of 50 μM in all experiments. Mdivi-1 in DMSO vehicle was added to cell culture media in a 50 mL tube, vortexed hard for several minutes and then incubated at 37° C. prior to adding to cells to ensure the compound was fully solubilized."}, "[2]": {"tested_on": "PCSK9 secretion in primary human hepatocytes", "test": "Secreted PCSK9 ELISA, primary human hepatocytes", "type": "cell-based", "details": "Mdivi-1 50 μM, 24 hours", "method": "Pitavastatin and T0901317 were synthesized and provided by Kowa Company, Ltd. (Tokyo, Japan), and treated at a dose of 1 μM in all experiments. DMSO (vehicle; final concentration 0.01%) and Mdivi-1 (>99.85% purity) were purchased from Sigma (St. Louis, Mo.). Mdivi-1 in DMSO vehicle was added at a concentration of 50 μM in all experiments. Mdivi-1 in DMSO vehicle was added to cell culture media in a 50 mL tube, vortexed hard for several minutes and then incubated at 37° C. prior to adding to cells to ensure the compound was fully solubilized.\nHepG2 cells were obtained from ATCC (Manassas, Va.), and cultured in EMEM with L-glutamine (ATCC) medium, 1% pen/strep, with and without 10% FBS (Thermo Fisher Scientific, Waltham, Mass.) in 12-well plates (Corning, Durham, N.C.). HepG2 cells were plated at a density of 60-70% prior to treatment to avoid clumping. […] Cell viability was assessed by Trypan Blue exclusion using live/dead cell counting on a Countess™ II LT automated cell counter (Thermo Fisher Scientific).\nMouse serum PCSK9 was measured using the mouse proprotein convertase 9/PCSK9 quantikine ELISA kit (MPC900, R&D Systems, Minneapolis, Minn.), and human liver cell secreted PCSK9 using the human proprotein convertase 9/PCSK9 DuoSet ELISA (DY3888, R&D Systems), both according to manufacturers' protocols."}, "HepG2 cells": {"tested_on": "HepG2 cells", "test": "HepG2 viability by Trypan Blue exclusion", "type": "cell-based, human", "details": "HepG2, Mdivi-1, 24 hours", "method": "HepG2 cells were obtained from ATCC (Manassas, Va.), and cultured in EMEM with L-glutamine (ATCC) medium, 1% pen/strep, with and without 10% FBS (Thermo Fisher Scientific, Waltham, Mass.) in 12-well plates (Corning, Durham, N.C.). HepG2 cells were plated at a density of 60-70% prior to treatment to avoid clumping. Freshly isolated primary human hepatocytes plated at 100% confluency on 12-well plates were obtained from Thermo Fisher Scientific. Three donors were used to obtain experimental data: person, person, and a person. Primary hepatocytes were treated immediately upon arrival and cultured in William's E medium with hepatic maintenance supplement pack (Thermo Fisher Scientific), 1% pen/strep (VWR; Radnor, Pa.), and 10% FBS (Thermo Fisher Scientific). Cell viability was assessed by Trypan Blue exclusion using live/dead cell counting on a Countess™ II LT automated cell counter (Thermo Fisher Scientific)."}, "p62": {"tested_on": "p62", "test": "Western blot, HepG2 p62 and p (S349) p62", "type": "cell-based, human", "details": "HepG2, 24 hours; Mdivi-1 50 μmol/L, MG132 0.3 μmol/L"}, "[3]": {"tested_on": "diabetic apolipoprotein E-deficient mice", "details": "cited from earlier work"}, "[4]": {"tested_on": "ischemia/reperfusion injury-induced myocardial infarction", "details": "mice; cited from earlier work"}, "naïve wild type rodents": {"tested_on": "naïve wild type rodents", "details": "up to ten weeks after treatment, Mdivi-1 injection; cited from earlier work"}},
  "data": [
    {"smiles": "COc1cc(-n2c(S)nc3ccccc3c2=O)c(Cl)cc1Cl", "note": "[Mdivi-1, 3-(2,4-Dichloro-5-methoxyphenyl)-2,3-dihydro-2-thioxo-4(1H)-quinazolinone]", "values": [
      {"measurement": "PCSK9 secretion reduction (SILAC)", "setting": "PCSK9 secretion", "value": "−74", "unit": "%"},
      {"measurement": "PCSK9 secretion change by ELISA", "setting": "[1]", "value": "−76.1", "unit": "%"},
      {"measurement": "PCSK9 secretion by ELISA", "setting": "[2]", "value": "reduced"},
      {"measurement": "cell viability", "setting": "HepG2 cells", "value": "without altering"},
      {"measurement": "p62 abundance", "setting": "p62", "value": "strongly increased"},
      {"measurement": "p62 phosphorylation", "setting": "p62", "value": "increased"},
      {"measurement": "oxidative stress and inflammation", "setting": "[3]", "value": "reduces"},
      {"measurement": "ischemia/reperfusion injury-induced myocardial infarction", "setting": "[4]", "value": "reduces"},
      {"measurement": "abnormal phenotypes or cytotoxicity", "setting": "naïve wild type rodents", "value": "no abnormal phenotypes or cytotoxicity"}
    ]}
  ]
}
